The values that follow come from ChEMBL document CHEMBL4715709, “Synthesis and evaluation of anticonvulsant properties of new N-Mannich bases derived from 3-(1-phenylethyl)- and 3-benzyl-pyrrolidine-2,5-dione” (Bioorg Med Chem Lett, 2016).

Data set [1] deals with Mus musculus. The data set is described as follows: Anticonvulsant activity in mouse assessed as protection against tonic-clonic seizures at 300 mg/kg, ip measured after 0.5 hrs by maximal electroshock seizure test. The data set is classed as functional, organism-based.
In data set [2] the test system is Mus musculus. The data set is described as follows: Anticonvulsant activity in mouse assessed as protection against tonic-clonic seizures at 300 mg/kg, ip measured after 4 hrs by maximal electroshock seizure test. It is filed as functional, organism-based.
Data set [3] relates to Mus musculus. Description: Anticonvulsant activity in mouse assessed as protection against ScPTZ-induced epilepsy at 300 mg/kg, ip measured after 0.5 hrs by subcutaneous pentylenetetrazole test. It is filed as functional, organism-based.
The test system of data set [4] is Mus musculus. Description: Anticonvulsant activity in mouse assessed as protection against ScPTZ-induced epilepsy at 300 mg/kg, ip measured after 4 hrs by subcutaneous pentylenetetrazole test. It is filed as functional, organism-based.
Data set [5] is described as follows: Neurotoxicity in mouse assessed as induction of motor impairment at 300 mg/kg, ip measured after 0.5 hrs by rotarod test. As to conditions: in vivo. It is filed as toxicity, organism-based.
Data set [6] in a line: Neurotoxicity in mouse assessed as induction of motor impairment at 300 mg/kg, ip measured after 4 hrs by rotarod test. The data set is classed as toxicity, organism-based. As to conditions: in vivo.
Data set [7] is described as follows: Neurotoxicity in ip dosed mouse assessed as minimum dose required for induction of motor impairment measured after 0.5 hrs by rotarod test. Conditions: in vivo. It is filed as toxicity, organism-based.
The test system of data set [8] is Mus musculus. The data set is described as follows: Anticonvulsant activity in ip dosed mouse assessed as minimum dose required for protection against ScPTZ-induced epilepsy measured after 4 hrs by subcutaneous pentylenetetrazole test. It is filed as functional.
In data set [9] the test system is Mus musculus. The data set is described as follows: Anticonvulsant activity in ip dosed mouse assessed as minimum dose required for protection against tonic-clonic seizures measured after 0.5 hrs by maximal electroshock seizure test. The data set is classed as functional.
Data set [10] relates to Mus musculus. The data set is described as follows: Anticonvulsant activity in ip dosed mouse assessed as minimum dose required for protection against ScPTZ-induced epilepsy measured after 0.5 hrs by subcutaneous pentylenetetrazole test. The data set is classed as functional.
The nature of data set [11]: Neurotoxicity activity in ip dosed mouse assessed as induction of motor impairment by rotarod test. The data set is classed as toxicity, organism-based. Conditions: in vivo.

The source made the active and inactive calls. No cut-off for these calls is given here. Some results are limits rather than exact numbers.

`O=C1CC(Cc2ccccc2)C(=O)N1CN1CCN(C2CCCCC2)CC1` (stereo unspecified): the result with Mus musculus [1], with Mus musculus [2], with Mus musculus [3] and in the data set on Mus musculus [4] was inactive. Also, the Activity entry in [5] and in data set [6] was “Non-Toxic” throughout.
`CC(c1ccccc1)C1CC(=O)N(CN2CCN(c3ccccc3Cl)CC2)C1=O` (stereo unspecified): the result in the data set on Mus musculus [1], with Mus musculus [2], with Mus musculus [3] and in the data set with Mus musculus [4] was inactive. The Activity entry in data set [5] and in [6] was “Non-Toxic” throughout.
With `CC(c1ccccc1)C1CC(=O)N(CN2CCN(c3ccccc3F)CC2)C1=O` (stereo unspecified), the outcome in the data set with Mus musculus [1], in the data set with Mus musculus [2], with Mus musculus [3] and in the data set with Mus musculus [4] was inactive. Besides, the Activity result in data set [5] and in [6] was “Non-Toxic” in each case.
For `O=C1CC(Cc2ccccc2)C(=O)N1CN1CCN(c2ccccc2)CC1` (racemic), the MTD50 in data set [7] came to 300 mg/kg. In addition, the outcome in the data set on Mus musculus [1], in the data set on Mus musculus [2], in the data set on Mus musculus [3] and in the data set on Mus musculus [4] was inactive. The Activity entry in [6] is “Non-Toxic”.
With `O=C1CC(Cc2ccccc2)C(=O)N1CN1CCN(c2ccccc2F)CC1` (racemic), in the data set on Mus musculus [8], the “MED=>50” value is 300 mg/kg. Moreover, the MTD50 in data set [7] was 300 mg/kg. Moreover, the outcome with Mus musculus [1], in the data set with Mus musculus [2] and with Mus musculus [3] was inactive. Besides, the Activity result in [6] is on record as “Non-Toxic”.
For `CC(c1ccccc1)C1CC(=O)N(CN2CCN(c3cccc(Cl)c3)CC2)C1=O` (racemic), the MTD50 in [7] was determined as 300 mg/kg. Further, the outcome in the data set on Mus musculus [1], in the data set with Mus musculus [2], in the data set on Mus musculus [3] and with Mus musculus [4] was inactive. The Activity entry in data set [6] is listed as “Non-Toxic”.
`Cc1cccc(N2CCN(CN3C(=O)CC(C(C)c4ccccc4)C3=O)CC2)c1` (racemic): the MTD50 in [7] came out at 300 mg/kg. In addition, the result with Mus musculus [1], with Mus musculus [2], with Mus musculus [3] and in the data set on Mus musculus [4] was inactive. In addition, the Activity entry in data set [6] is recorded as “Non-Toxic”.
`CC(c1ccccc1)C1CC(=O)N(CN2CCN(Cc3ccccc3)CC2)C1=O` (stereo unspecified): the outcome in the data set with Mus musculus [1], with Mus musculus [2], in the data set on Mus musculus [3] and in the data set on Mus musculus [4] was inactive. Besides, the Activity entry in data set [5] and in [6] was “Non-Toxic” each time.
With `COc1cccc(N2CCN(CN3C(=O)CC(Cc4ccccc4)C3=O)CC2)c1` (stereo unspecified), the result in the data set on Mus musculus [1], with Mus musculus [2], with Mus musculus [3] and in the data set with Mus musculus [4] was inactive. Moreover, the Activity entry in [5] and in data set [6] was “Non-Toxic” throughout.
On to `CC(c1ccccc1)C1CC(=O)N(CN2CCN(c3cccc(Cl)c3Cl)CC2)C1=O` (stereo unspecified), for which the outcome in the data set on Mus musculus [1], in the data set with Mus musculus [2], in the data set with Mus musculus [3] and in the data set with Mus musculus [4] was inactive. The Activity result in [5] and in data set [6] was “Non-Toxic” in each case.
In the case of `Cc1ccccc1N1CCN(CN2C(=O)CC(Cc3ccccc3)C2=O)CC1` (racemic), the outcome in the data set on Mus musculus [1], in the data set on Mus musculus [2], in the data set on Mus musculus [3] and in the data set on Mus musculus [4] was inactive. For the same molecule, the Activity result in [5] and in data set [6] was “Non-Toxic” in each case.
On to `Cc1ccccc1N1CCN(CN2C(=O)CC(C(C)c3ccccc3)C2=O)CC1` (stereo unspecified), for which the result with Mus musculus [1], with Mus musculus [2], with Mus musculus [3] and with Mus musculus [4] was inactive. In addition, the Activity result in [5] and in data set [6] was “Non-Toxic” throughout.
With `O=C1CC(Cc2ccccc2)C(=O)N1CN1CCN(c2ccccc2Cl)CC1` (racemic), in the data set on Mus musculus [8], the “MED=>50” value came out at 100 mg/kg. The outcome in the data set on Mus musculus [1], with Mus musculus [2] and in the data set with Mus musculus [3] was inactive. The Activity result in data set [5] and in data set [6] was “Non-Toxic” in each case.
With `CC(c1ccccc1)C1CC(=O)N(CN2CCN(c3ccc(Cl)c(Cl)c3)CC2)C1=O` (stereo unspecified), the result in the data set on Mus musculus [1], in the data set on Mus musculus [2], in the data set on Mus musculus [3] and in the data set with Mus musculus [4] was inactive. Besides, the Activity entry in [5] and in data set [6] was “Non-Toxic” each time.
Regarding `Cc1cccc(N2CCN(CN3C(=O)CC(Cc4ccccc4)C3=O)CC2)c1` (racemic), the minimum effective dose in the data set on Mus musculus [9] is 300 mg/kg. Besides, the “MED=>50” value with Mus musculus [8] came to 100 mg/kg. Moreover, the MTD50 in data set [7] came out at 300 mg/kg. Further, the outcome in the data set on Mus musculus [2] and in the data set on Mus musculus [3] was inactive. Also, in data set [6], the Activity entry was “Non-Toxic”.
Regarding `COc1ccccc1N1CCN(CN2C(=O)CC(Cc3ccccc3)C2=O)CC1` (racemic), in the data set with Mus musculus [10], the “MED=>50” value came to 100 mg/kg. In addition, the MTD50 in [7] turned out to be 300 mg/kg. For the same molecule, the result in the data set on Mus musculus [1], with Mus musculus [2] and in the data set on Mus musculus [4] was inactive. The Activity entry in data set [6] is “Non-Toxic”.
Regarding `O=C1CC(Cc2ccccc2)C(=O)N1CN1CCN(c2cccc(Cl)c2)CC1` (racemic), the MTD50 in data set [7] was 300 mg/kg. Further, the outcome in the data set on Mus musculus [1], in the data set with Mus musculus [2], in the data set with Mus musculus [3] and with Mus musculus [4] was inactive. The Activity entry in [6] was “Non-Toxic”.
With `CC(c1ccccc1)C1CC(=O)N(CN2CCN(c3ccc(Cl)cc3)CC2)C1=O` (racemic), the “MED=>50” value with Mus musculus [10] and in the data set with Mus musculus [8] was 300 mg/kg in each case. Further, the outcome with Mus musculus [1] and in the data set with Mus musculus [2] was inactive. Besides, the Activity result in data set [5] and in [6] was “Non-Toxic” throughout.
With `O=C1CC(Cc2ccccc2)C(=O)N1CN1CCC(Cc2ccccc2)CC1` (stereo unspecified), the outcome with Mus musculus [1], with Mus musculus [2], with Mus musculus [3] and in the data set with Mus musculus [4] was inactive. In addition, the Activity result in [5] and in data set [6] was “Non-Toxic” throughout.
`O=C1CC(Cc2ccccc2)C(=O)N1CN1CCN(c2cccc(Cl)c2Cl)CC1` (stereo unspecified): the result in the data set with Mus musculus [1], in the data set with Mus musculus [2], in the data set on Mus musculus [3] and in the data set with Mus musculus [4] was inactive. The Activity entry in data set [5] and in data set [6] was “Non-Toxic” in each case.
For the molecule `COc1cccc(N2CCN(CN3C(=O)CC(C(C)c4ccccc4)C3=O)CC2)c1` (stereo unspecified), the outcome in the data set on Mus musculus [1], in the data set with Mus musculus [2], with Mus musculus [3] and with Mus musculus [4] was inactive. The Activity entry in data set [5] and in [6] was “Non-Toxic” throughout.
Regarding `CC(c1ccccc1)C1CC(=O)N(CN2CCN(c3ccccc3)CC2)C1=O` (stereo unspecified), the result in the data set with Mus musculus [1], in the data set with Mus musculus [2], with Mus musculus [3] and in the data set on Mus musculus [4] was inactive. In addition, the Activity result in [5] and in data set [6] was “Non-Toxic” throughout.
`CC(c1ccccc1)C1CC(=O)N(CN2CCN(c3ncccn3)CC2)C1=O` (racemic): in the data set on Mus musculus [8], the “MED=>50” value amounted to 300 mg/kg. Besides, the MTD50 in [7] is 300 mg/kg. Also, the outcome in the data set on Mus musculus [1], in the data set with Mus musculus [2] and with Mus musculus [3] was inactive. The Activity result in [6] is listed as “Non-Toxic”.
Turning to `Cl.O=C1CC(Cc2ccccc2)C(=O)N1CN1CCN(Cc2ccccc2)CC1` (racemic), the “MED=>50” value with Mus musculus [8] worked out at 100 mg/kg. In addition, the result with Mus musculus [1], in the data set on Mus musculus [2] and in the data set with Mus musculus [3] was inactive. Also, the Activity result in [5] and in data set [6] was “Non-Toxic” throughout.
Regarding `CC(c1ccccc1)C1CC(=O)N(CN2CCN(c3ccc(F)cc3)CC2)C1=O` (stereo unspecified), the outcome in the data set on Mus musculus [1], in the data set with Mus musculus [2], in the data set on Mus musculus [3] and in the data set on Mus musculus [4] was inactive. The Activity entry in [5] and in data set [6] was “Non-Toxic” in each case.
Turning to `CC[C@@H](C(N)=O)N1CCCC1=O` [LEVETIRACETAM], the TD50 in data set [11] is greater than 500 mg/kg.
